Here are results for eight compounds from patent US5965699A (priority 1996, dated 1999).

Usually Km stands for the concentration of substrate that gives half-maximal velocity.

SMILES strings stand for the structures. Where two headings read alike, the source gives them in different places. Where a SMILES comes first, the peptide text is derived from it. [ ]: non-standard residue; d: D form. Nle = CCCC[C@H](N)C(=O)O; Abu = CC[C@H](N)C(=O)O

This assay deals with botox A (Clostridium botulinum, UniProt P0DPI1). The class given is biochemical. Further details: Rate (initial rate of peptide hydrolysis) / Rate (initial rate of hydrolysis) In AcBSA: unit not given here. The note with it: for kcat: in 1/s.
botox A, sequence (P0DPI1 2-448 limits assumed): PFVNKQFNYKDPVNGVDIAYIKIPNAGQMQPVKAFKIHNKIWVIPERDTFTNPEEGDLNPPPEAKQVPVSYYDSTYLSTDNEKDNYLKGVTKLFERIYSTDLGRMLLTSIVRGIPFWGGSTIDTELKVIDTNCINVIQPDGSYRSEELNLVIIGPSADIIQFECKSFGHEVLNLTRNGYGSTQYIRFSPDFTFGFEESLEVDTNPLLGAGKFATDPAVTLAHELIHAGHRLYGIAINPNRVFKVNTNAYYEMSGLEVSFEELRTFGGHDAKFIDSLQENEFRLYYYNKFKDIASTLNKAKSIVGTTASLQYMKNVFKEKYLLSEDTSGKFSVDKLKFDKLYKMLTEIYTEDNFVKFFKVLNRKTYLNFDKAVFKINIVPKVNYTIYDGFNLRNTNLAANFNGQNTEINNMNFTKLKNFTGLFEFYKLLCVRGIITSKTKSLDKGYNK

Take `CC[C@H](NC(=O)[C@H](CCC(=O)O)NC(=O)[C@H](CC(=O)O)NC(=O)[C@@H](NC(=O)[C@H](CCCNC(=N)N)NC(=O)[C@@H](NC(=O)[C@H](CCCCN)NC(=O)[C@H](CC(N)=O)NC(=O)[C@H](CO)NC(C)=O)[C@@H](C)O)[C@@H](C)CC)C(=O)N[C@@H](CC(N)=O)C(=O)N[C@@H](CCC(N)=O)C(=O)N[C@@H](CCCNC(=N)N)C(=O)N[C@@H](C)C(=O)N[C@H](C(=O)N[C@@H](CCCCN)C(=O)N[C@@H](CCSC)C(=O)N[C@@H](CC(C)C)C(N)=O)[C@@H](C)O` [A9B, S N K T R I D E B N Q R A T K M L] (Ac-SNKTRIDE[Abu]NQRATKML-NH2): the “decrease in kcat compared with peptide [1-17]” value is on record as “about 75%”; the “hydrolysis by botox A, described in words” value (“hydrolysis … in words” for short) is recorded as “still a good substrate”; the kcat is on record as 11 ± 1. The Km (read-out: Km) worked out at 1100 ± 100 µM.

Take `CC[C@H](NC(=O)[C@H](CCCNC(=N)N)NC(=O)[C@H](CCC(N)=O)NC(=O)[C@H](CC(N)=O)NC(=O)[C@H](C)NC(=O)[C@H](CCC(=O)O)NC(=O)[C@H](CC(=O)O)NC(=O)[C@@H](NC(=O)[C@H](CCCNC(=N)N)NC(=O)[C@@H](NC(=O)[C@H](CCCCN)NC(=O)[C@H](CC(N)=O)NC(=O)[C@H](CO)NC(C)=O)[C@@H](C)O)[C@@H](C)CC)C(=O)N[C@H](C(=O)N[C@@H](CCCCN)C(=O)N[C@@H](CCSC)C(=O)N[C@@H](CC(C)C)C(N)=O)[C@@H](C)O` [A13B, S N K T R I D E A N Q R B T K M L] (Ac-SNKTRIDEANQR[Abu]TKML-NH2): the “Relative Rate (initial hydrolysis rates relative to peptide [1-17])” value was “.79” and the kcat was determined as 39 ± 2. The Km (read-out: Km) stood at 1800 ± 100 µM.

With `CCCC[C@H](NC(=O)[C@H](CCCCN)NC(=O)[C@@H](NC(=O)[C@H](C)NC(=O)[C@H](CCCNC(=N)N)NC(=O)[C@H](CCC(N)=O)NC(=O)[C@H](CC(N)=O)NC(=O)[C@H](C)NC(=O)[C@H](CCC(=O)O)NC(=O)[C@H](CC(=O)O)NC(=O)[C@@H](NC(=O)[C@H](CCCNC(=N)N)NC(=O)[C@@H](NC(=O)[C@H](CCCCN)NC(=O)[C@H](CC(N)=O)NC(=O)[C@H](CO)NC(C)=O)[C@@H](C)O)[C@@H](C)CC)[C@@H](C)O)C(=O)N[C@@H](CC(C)C)C(N)=O` [M16X, S N K T R I D E A N Q R A T K X L] (Ac-SNKTRIDEANQRATK[Nle]L-NH2), the “hydrolysis … in words” value is “hydrolyzed somewhat faster than the native-sequence peptide” and the kcat was determined as 30 ± 1. Further, the Km (read-out: Km) was 580 ± 20 µM.

In the case of `CC[C@H](NC(=O)[C@H](CC(N)=O)NC(=O)[C@H](C)NC(=O)[C@H](CCC(=O)O)NC(=O)[C@H](CC(=O)O)NC(=O)[C@@H](NC(=O)[C@H](CCCNC(=N)N)NC(=O)[C@@H](NC(=O)[C@H](CCCCN)NC(=O)[C@H](CC(N)=O)NC(=O)[C@H](CO)NC(C)=O)[C@@H](C)O)[C@@H](C)CC)C(=O)N[C@@H](CCCNC(=N)N)C(=O)N[C@@H](C)C(=O)N[C@H](C(=O)N[C@@H](CCCCN)C(=O)N[C@@H](CCSC)C(=O)N[C@@H](CC(C)C)C(N)=O)[C@@H](C)O` [Q11B, S N K T R I D E A N B R A T K M L] (Ac-SNKTRIDEAN[Abu]RATKML-NH2), the “hydrolysis … in words” value was “slowed but did not eliminate hydrolysis” and the kcat amounted to 7.7 ± 0.2. Also, under “read-out: Km”, the Km was determined as 830 ± 50 µM.

`CC[C@H](NC(=O)[C@H](C)NC(=O)[C@H](CCCNC(=N)N)NC(=O)[C@H](CCC(N)=O)NC(=O)[C@H](CC(N)=O)NC(=O)[C@H](C)NC(=O)[C@H](CCC(=O)O)NC(=O)[C@H](CC(=O)O)NC(=O)[C@@H](NC(=O)[C@H](CCCNC(=N)N)NC(=O)[C@@H](NC(=O)[C@H](CCCCN)NC(=O)[C@H](CC(N)=O)NC(=O)[C@H](CO)NC(C)=O)[C@@H](C)O)[C@@H](C)CC)C(=O)N[C@@H](CCCCN)C(=O)N[C@@H](CCSC)C(=O)N[C@@H](CC(C)C)C(N)=O` [T14B, S N K T R I D E A N Q R A B K M L] (Ac-SNKTRIDEANQRA[Abu]KML-NH2): the “Relative Rate (initial hydrolysis rates relative to peptide [1-17])” value is reported as 1.20; the “hydrolysis … in words” value is given as “good substrate”; the kcat is 35 ± 2. For the setting “read-out: Km”, the Km is 1300 ± 100 µM.

In the case of `CC[C@H](NC(=O)[C@H](CCCNC(=N)N)NC(=O)[C@H](CC(N)=O)NC(=O)[C@H](CO)NC(C)=O)C(=O)N[C@@H](CCCNC(=N)N)C(=O)N[C@H](C(=O)N[C@@H](CC(=O)O)C(=O)N[C@@H](CCC(=O)O)C(=O)N[C@@H](C)C(=O)N[C@@H](CC(N)=O)C(=O)N[C@@H](CCC(N)=O)C(=O)N[C@@H](CCCNC(=N)N)C(=O)N[C@@H](C)C(=O)N[C@H](C(=O)N[C@@H](CCCNC(=N)N)C(=O)N[C@@H](CCSC)C(=O)N[C@@H](CC(C)C)C(N)=O)[C@@H](C)O)[C@@H](C)CC` [peptide 3, S N R B R I D E A N Q R A T R M L] (Ac-SNR[Abu]RIDEANQRATRML-NH2), the Kcat In AcBSA came to 58 s⁻¹, the Kcat In BSA is 75 s⁻¹, the “Rate (initial rate of hydrolysis) In AcBSA” value came out at 18 and the “Rate (initial rate of hydrolysis) In BSA” value came to 16. Further, the “Rate (initial rate of peptide hydrolysis)” value is 15.8 ± 0.8 and the “Relative Rate” value is reported as 2.1. For the same compound, where the note is “read-out: Km In AcBSA”, the Km turned out to be 320 µM. Moreover, the Km (read-out: Km In BSA) came out at 910 µM.

Take `CC[C@H](NC(=O)[C@H](CC(=O)O)NC(=O)[C@@H](NC(=O)[C@H](CCCNC(=N)N)NC(=O)[C@@H](NC(=O)[C@H](CCCNC(=N)N)NC(=O)[C@H](CC(N)=O)NC(=O)[C@H](CO)NC(C)=O)[C@@H](C)O)[C@@H](C)CC)C(=O)N[C@@H](C)C(=O)N[C@@H](CC(N)=O)C(=O)N[C@@H](CCC(N)=O)C(=O)N[C@@H](CCCNC(=N)N)C(=O)N[C@@H](C)C(=O)N[C@H](C(=O)N[C@@H](CCCNC(=N)N)C(=O)N[C@@H](CCSC)C(=O)N[C@@H](CC(C)C)C(N)=O)[C@@H](C)O` [peptide 5, S N R T R I D B A N Q R A T R M L] (Ac-SNRTRID[Abu]ANQRATRML-NH2): the Kcat In AcBSA stood at 70 s⁻¹, the Kcat In BSA came out at 69 s⁻¹, the “Rate (initial rate of hydrolysis) In AcBSA” value amounted to 21 and the “Rate (initial rate of hydrolysis) In BSA” value was found to be 13. Moreover, the “Rate (initial rate of peptide hydrolysis)” value is 12.9 ± 0.3, the “Relative Rate” value is 1.7 and the “specific activity of type A toxin against the peptide” value was determined as 21 µmol/min/mg. In addition, the Km (read-out: Km In AcBSA) came to 330 µM. For the setting “read-out: Km In BSA”, the Km was 740 µM.

Consider `CC[C@H](NC(=O)[C@H](CC(=O)O)NC(=O)[C@@H](NC(=O)[C@H](CCCNC(=N)N)NC(=O)[C@H](CC)NC(=O)[C@H](CCCNC(=N)N)NC(=O)[C@H](CC(N)=O)NC(=O)[C@H](CO)NC(C)=O)[C@@H](C)CC)C(=O)N[C@@H](C)C(=O)N[C@@H](CC(N)=O)C(=O)N[C@@H](CCC(N)=O)C(=O)N[C@@H](CCCNC(=N)N)C(=O)N[C@@H](C)C(=O)N[C@H](C(=O)N[C@@H](CCCNC(=N)N)C(=O)N[C@@H](CCSC)C(=O)N[C@@H](CC(C)C)C(N)=O)[C@@H](C)O` [peptide 6, S N R B R I D B A N Q R A T R M L] (Ac-SNR[Abu]RID[Abu]ANQRATRML-NH2), for which the Kcat In AcBSA was 86 s⁻¹, the Kcat In BSA amounted to 89 s⁻¹, the “Rate (initial rate of hydrolysis) In AcBSA” value was determined as 25 and the “Rate (initial rate of hydrolysis) In BSA” value worked out at 24. Also, the “Rate (initial rate of peptide hydrolysis)” value is 25.3 ± 0.7; the “Relative Rate” value amounted to 3.3; the “hydrolysis … in words” value is given as “more than three times faster”. In addition, the Michaelis-Menten constant (Km) (read-out: Km In AcBSA) worked out at 400 µM. Also, under “read-out: Km In BSA”, the Km came to 520 µM.
